# Tested on: Crude diglycosidase
# Assay: Examination of temperature in the conversion into isoflavone aglycons by diglycosidase using soybean materials
# Assay type: biochemical, Penicillium multicolor IAM7153
# Design: Decomposition efficiency of glycitin family in roasted soy flour / Decomposition efficiency of daidzin family in roasted soy flour / Decomposition efficiency of genistin family in soymilk / Decomposition efficiency of daidzin family in soymilk / Decomposition efficiency of glycitin family in defatted soybean / Decomposition efficiency of daidzin family in defatted soybean: concentration or dose not given beside the values
# In short: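 Temperature series (30-80° C.) of crude diglycosidase, diluted to 1.88 AU/mL in 20 mM acetate pH 4.0, acting on roasted soy flour, soymilk, defatted soybean or soy protein concentrate. Samples quenched with ethanol after 0-6 h, centrifuged, filtered and analyzed by HPLC for glycosides versus aglycons.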
# [1] = 30 °C, heat treatment of enzyme: no, 0 h
# [2] = 30 °C, heat treatment of enzyme: no, 1 h
# [3] = 30 °C, heat treatment of enzyme: no, 3 h
# [4] = 30 °C, heat treatment of enzyme: no, 6 h
# [5] = 30 °C, heat treatment of enzyme: yes, 6 h
# [6] = 45 °C, heat treatment of enzyme: no, 0 h
# [7] = 45 °C, heat treatment of enzyme: no, 1 h
# [8] = 45 °C, heat treatment of enzyme: no, 3 h
# [9] = 45 °C, heat treatment of enzyme: no, 6 h
# [10] = 45 °C, heat treatment of enzyme: yes, 6 h
# [11] = 55 °C, heat treatment of enzyme: no, 0 h
# [12] = 55 °C, heat treatment of enzyme: no, 1 h
# [13] = 55 °C, heat treatment of enzyme: no, 3 h
# [14] = 55 °C, heat treatment of enzyme: no, 6 h
# [15] = 55 °C, heat treatment of enzyme: yes, 6 h
# [16] = 65 °C, heat treatment of enzyme: no, 0 h
# [17] = 65 °C, heat treatment of enzyme: no, 1 h
# [18] = 65 °C, heat treatment of enzyme: no, 3 h
# [19] = 65 °C, heat treatment of enzyme: no, 6 h
# [20] = 65 °C, heat treatment of enzyme: yes, 6 h
# [21] = 80 °C, heat treatment of enzyme: no, 0 h
# [22] = 80 °C, heat treatment of enzyme: no, 1 h
# [23] = 80 °C, heat treatment of enzyme: no, 3 h
# [24] = 80 °C, heat treatment of enzyme: no, 6 h
# [25] = 80 °C, heat treatment of enzyme: yes, 6 h
structure (smiles),measurement,setting,value
"COc1cc2c(=O)c(-c3ccc(O)cc3)coc2cc1O[C@@H]1O[C@H](COC(=O)CC(=O)O)[C@@H](O)[C@H](O)[C@H]1O [malonylglycitin, 6″-O-malonylglycitin]",Decomposition efficiency of glycitin family in defatted soybean,"30° C., heat treatment of enzyme no, reaction time 0 h",61.3%
same,Decomposition efficiency of glycitin family in defatted soybean,"30° C., heat treatment of enzyme no, reaction time 1 h",48.3%
same,Decomposition efficiency of glycitin family in defatted soybean,"30° C., heat treatment of enzyme no, reaction time 3 h",44.6%
same,Decomposition efficiency of glycitin family in defatted soybean,"30° C., heat treatment of enzyme no, reaction time 6 h",45.6%
same,Decomposition efficiency of glycitin family in defatted soybean,"30° C., heat treatment of enzyme yes, reaction time 6 h",45.1%
same,Decomposition efficiency of glycitin family in concentrated soybean protein,[1],0.4%
same,Decomposition efficiency of glycitin family in roasted soy flour,[1],not detected
same,Decomposition efficiency of glycitin family in soymilk,[1],48.0%
same,Decomposition efficiency of glycitin family in concentrated soybean protein,[2],0.5%
same,Decomposition efficiency of glycitin family in roasted soy flour,[2],not detected
same,Decomposition efficiency of glycitin family in soymilk,[2],51.0%
same,Decomposition efficiency of glycitin family in concentrated soybean protein,[3],0.5%
same,Decomposition efficiency of glycitin family in roasted soy flour,[3],not detected
same,Decomposition efficiency of glycitin family in soymilk,[3],39.6%
same,Decomposition efficiency of glycitin family in concentrated soybean protein,[4],0.5%
same,Decomposition efficiency of glycitin family in roasted soy flour,[4],not detected
same,Decomposition efficiency of glycitin family in soymilk,[4],28.4%
same,Decomposition efficiency of glycitin family in concentrated soybean protein,[5],0.4%
same,Decomposition efficiency of glycitin family in roasted soy flour,[5],not detected
same,Decomposition efficiency of glycitin family in soymilk,[5],47.7%
same,Decomposition efficiency of glycitin family in defatted soybean,"45° C., heat treatment of enzyme no, reaction time 0 h",65.2%
same,Decomposition efficiency of glycitin family in defatted soybean,"45° C., heat treatment of enzyme no, reaction time 1 h",44.3%
same,Decomposition efficiency of glycitin family in defatted soybean,"45° C., heat treatment of enzyme no, reaction time 3 h",44.8%
same,Decomposition efficiency of glycitin family in defatted soybean,"45° C., heat treatment of enzyme no, reaction time 6 h",41.0%
same,Decomposition efficiency of glycitin family in defatted soybean,"45° C., heat treatment of enzyme yes, reaction time 6 h",44.2%
same,Decomposition efficiency of glycitin family in concentrated soybean protein,[6],0.4%
same,Decomposition efficiency of glycitin family in roasted soy flour,[6],not detected
same,Decomposition efficiency of glycitin family in soymilk,[6],49.1%
same,Decomposition efficiency of glycitin family in concentrated soybean protein,[7],0.6%
same,Decomposition efficiency of glycitin family in roasted soy flour,[7],not detected
same,Decomposition efficiency of glycitin family in soymilk,[7],46.2%
same,Decomposition efficiency of glycitin family in concentrated soybean protein,[8],0.6%
same,Decomposition efficiency of glycitin family in roasted soy flour,[8],not detected
same,Decomposition efficiency of glycitin family in soymilk,[8],29.9%
same,Decomposition efficiency of glycitin family in concentrated soybean protein,[9],0.6%
same,Decomposition efficiency of glycitin family in roasted soy flour,[9],not detected
same,Decomposition efficiency of glycitin family in soymilk,[9],15.3%
same,Decomposition efficiency of glycitin family in concentrated soybean protein,[10],0.5%
same,Decomposition efficiency of glycitin family in roasted soy flour,[10],not detected
same,Decomposition efficiency of glycitin family in soymilk,[10],47.2%
same,Decomposition efficiency of glycitin family in defatted soybean,"55° C., heat treatment of enzyme no, reaction time 0 h",61.3%
same,Decomposition efficiency of glycitin family in defatted soybean,"55° C., heat treatment of enzyme no, reaction time 1 h",44.8%
same,Decomposition efficiency of glycitin family in defatted soybean,"55° C., heat treatment of enzyme no, reaction time 3 h",42.6%
same,Decomposition efficiency of glycitin family in defatted soybean,"55° C., heat treatment of enzyme no, reaction time 6 h",42.7%
same,Decomposition efficiency of glycitin family in defatted soybean,"55° C., heat treatment of enzyme yes, reaction time 6 h",45.5%
same,Decomposition efficiency of glycitin family in concentrated soybean protein,[11],0.4%
same,Decomposition efficiency of glycitin family in roasted soy flour,[11],not detected
same,Decomposition efficiency of glycitin family in soymilk,[11],44.6%
same,Decomposition efficiency of glycitin family in concentrated soybean protein,[12],0.5%
same,Decomposition efficiency of glycitin family in roasted soy flour,[12],not detected
same,Decomposition efficiency of glycitin family in soymilk,[12],39.1%
same,Decomposition efficiency of glycitin family in concentrated soybean protein,[13],0.5%
same,Decomposition efficiency of glycitin family in roasted soy flour,[13],not detected
same,Decomposition efficiency of glycitin family in soymilk,[13],27.7%
same,Decomposition efficiency of glycitin family in concentrated soybean protein,[14],0.5%
same,Decomposition efficiency of glycitin family in roasted soy flour,[14],not detected
same,Decomposition efficiency of glycitin family in soymilk,[14],16.5%
same,Decomposition efficiency of glycitin family in concentrated soybean protein,[15],0.4%
same,Decomposition efficiency of glycitin family in roasted soy flour,[15],not detected
same,Decomposition efficiency of glycitin family in soymilk,[15],39.9%
same,Decomposition efficiency of glycitin family in defatted soybean,"65° C., heat treatment of enzyme no, reaction time 0 h",65.2%
same,Decomposition efficiency of glycitin family in defatted soybean,"65° C., heat treatment of enzyme no, reaction time 1 h",45.3%
same,Decomposition efficiency of glycitin family in defatted soybean,"65° C., heat treatment of enzyme no, reaction time 3 h",42.1%
same,Decomposition efficiency of glycitin family in defatted soybean,"65° C., heat treatment of enzyme no, reaction time 6 h",40.0%
same,Decomposition efficiency of glycitin family in defatted soybean,"65° C., heat treatment of enzyme yes, reaction time 6 h",48.8%
same,Decomposition efficiency of glycitin family in concentrated soybean protein,[16],0.4%
same,Decomposition efficiency of glycitin family in roasted soy flour,[16],not detected
same,Decomposition efficiency of glycitin family in soymilk,[16],48.0%
same,Decomposition efficiency of glycitin family in concentrated soybean protein,[17],0.5%
same,Decomposition efficiency of glycitin family in roasted soy flour,[17],not detected
same,Decomposition efficiency of glycitin family in soymilk,[17],42.4%
same,Decomposition efficiency of glycitin family in concentrated soybean protein,[18],0.5%
same,Decomposition efficiency of glycitin family in roasted soy flour,[18],not detected
same,Decomposition efficiency of glycitin family in soymilk,[18],34.3%
same,Decomposition efficiency of glycitin family in concentrated soybean protein,[19],0.4%
same,Decomposition efficiency of glycitin family in roasted soy flour,[19],not detected
same,Decomposition efficiency of glycitin family in soymilk,[19],25.5%
same,Decomposition efficiency of glycitin family in concentrated soybean protein,[20],0.4%
same,Decomposition efficiency of glycitin family in roasted soy flour,[20],not detected
same,Decomposition efficiency of glycitin family in soymilk,[20],36.0%
same,Decomposition efficiency of glycitin family in defatted soybean,"80° C., heat treatment of enzyme no, reaction time 0 h",65.2%
same,Decomposition efficiency of glycitin family in defatted soybean,"80° C., heat treatment of enzyme no, reaction time 1 h",46.1%
same,Decomposition efficiency of glycitin family in defatted soybean,"80° C., heat treatment of enzyme no, reaction time 3 h",45.0%
same,Decomposition efficiency of glycitin family in defatted soybean,"80° C., heat treatment of enzyme no, reaction time 6 h",40.3%
same,Decomposition efficiency of glycitin family in defatted soybean,"80° C., heat treatment of enzyme yes, reaction time 6 h",48.1%
same,Decomposition efficiency of glycitin family in concentrated soybean protein,[21],0.4%
same,Decomposition efficiency of glycitin family in roasted soy flour,[21],not detected
same,Decomposition efficiency of glycitin family in soymilk,[21],49.1%
same,Decomposition efficiency of glycitin family in concentrated soybean protein,[22],0.4%
same,Decomposition efficiency of glycitin family in roasted soy flour,[22],not detected
same,Decomposition efficiency of glycitin family in soymilk,[22],43.6%
same,Decomposition efficiency of glycitin family in concentrated soybean protein,[23],0.4%
same,Decomposition efficiency of glycitin family in roasted soy flour,[23],not detected
same,Decomposition efficiency of glycitin family in soymilk,[23],32.6%
same,Decomposition efficiency of glycitin family in concentrated soybean protein,[24],0.3%
same,Decomposition efficiency of glycitin family in roasted soy flour,[24],not detected
same,Decomposition efficiency of glycitin family in soymilk,[24],21.3%
same,Decomposition efficiency of glycitin family in concentrated soybean protein,[25],0.3%
same,Decomposition efficiency of glycitin family in roasted soy flour,[25],not detected
same,Decomposition efficiency of glycitin family in soymilk,[25],19.3%
